According to PubChem BioAssay AID1963427 (Molecular Pharmacology Branch, DTP, NCI, 2024):
Values belong to the compound of their own block, whether it stands above or below them.

Tested on: 317291-083-R-J1-PDC complex spheroid growth
Experiment: Anticancer human tumor 317291-083-R-J1-PDC patient-derived soft tissue sarcoma cell line growth inhibition [Asc]
Conditions: for IC50: curve of first compound; for viability, T/C: stronger effect = lower value
Procedure, shortened: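 Stromal components (HUVEC and hMSC) are co-assembled with the cancer cells into multicellular spheroids. Drugs are then added singly or paired, at concentrations falling by half-log increments from a clinically achievable maximum, capped at 10 microM without known Cmax.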

[1] = second compound 0.0316 µM, first compound 0.00316 µM
[2] = second compound 0.0316 µM, first compound 0.01 µM
[3] = second compound 0.0316 µM, first compound 0.0316 µM
[4] = second compound 0.0316 µM, first compound 0.1 µM
[5] = second compound 0.0316 µM, first compound 0.316 µM
[6] = second compound 0.0316 µM, first compound 1 µM
[7] = second compound 0.1 µM, first compound 0.00316 µM
[8] = second compound 0.1 µM, first compound 0.01 µM
[9] = second compound 0.1 µM, first compound 0.0316 µM
[10] = second compound 0.1 µM, first compound 0.1 µM
[11] = second compound 0.1 µM, first compound 0.316 µM
[12] = second compound 0.1 µM, first compound 1 µM
[13] = second compound 0.316 µM, first compound 0.00316 µM
[14] = second compound 0.316 µM, first compound 0.01 µM
[15] = second compound 0.316 µM, first compound 0.0316 µM
[16] = second compound 0.316 µM, first compound 0.1 µM
[17] = second compound 0.316 µM, first compound 0.316 µM
[18] = second compound 0.316 µM, first compound 1 µM
[19] = second compound 1 µM, first compound 0.00316 µM
[20] = second compound 1 µM, first compound 0.01 µM
[21] = second compound 1 µM, first compound 0.0316 µM
[22] = second compound 1 µM, first compound 0.1 µM
[23] = second compound 1 µM, first compound 0.316 µM
[24] = second compound 1 µM, first compound 1 µM
[25] = second compound 3.16 µM, first compound 0.00316 µM
[26] = second compound 3.16 µM, first compound 0.01 µM
[27] = second compound 3.16 µM, first compound 0.0316 µM
[28] = second compound 3.16 µM, first compound 0.1 µM
[29] = second compound 3.16 µM, first compound 0.316 µM
[30] = second compound 3.16 µM, first compound 1 µM
[31] = second compound 10 µM, first compound 0.00316 µM
[32] = second compound 10 µM, first compound 0.01 µM
[33] = second compound 10 µM, first compound 0.0316 µM
[34] = second compound 10 µM, first compound 0.1 µM
[35] = second compound 10 µM, first compound 0.316 µM
[36] = second compound 10 µM, first compound 1 µM
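Note: compound exposure lasted seven days after spheroids formed for three days.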
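Throughout, for viability, T/C: 100% = DMSO vehicle control wells.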

IC50 (second compound 0.0316 µM): 871 nM
IC50 (second compound 0.1 µM): 647 nM
IC50 (second compound 0.316 µM): 402 nM
IC50 (second compound 1 µM): 373 nM
IC50 (second compound 3.16 µM): 242 nM
IC50 (second compound 10 µM): 372 nM
Compound: CCN1CCN(Cc2ccc(Nc3ncc(F)c(-c4cc(F)c5nc(C)n(C(C)C)c5c4)n3)nc2)CC1 + Cc1c(S(C)(=O)=O)c(-c2cc(F)cc(N3CCN(c4ccc(NS(=O)(=O)c5ccc(NC(CCN6CCC(C(=O)OCCCP(=O)(O)O)CC6)CSc6ccccc6)c(S(=O)(=O)C(F)(F)F)c5)cc4)CC3)c2)c(-c2ccc(Cl)cc2)n1C(C)C
viability, T/C [1]: 97.4%
viability, T/C [2]: 105%
viability, T/C [3]: 87%
viability, T/C [4]: 87.2%
viability, T/C [5]: 70%
viability, T/C [6]: 46.8%
viability, T/C [7]: 113%
viability, T/C [8]: 85.7%
viability, T/C [9]: 90.4%
viability, T/C [10]: 74%
viability, T/C [11]: 63.6%
viability, T/C [12]: 41%
viability, T/C [13]: 94.1%
viability, T/C [14]: 80.5%
viability, T/C [15]: 77.8%
viability, T/C [16]: 62.1%
viability, T/C [17]: 66.6%
viability, T/C [18]: 26.7%
viability, T/C [19]: 87.2%
viability, T/C [20]: 88%
viability, T/C [21]: 67.8%
viability, T/C [22]: 88.2%
viability, T/C [23]: 54%
viability, T/C [24]: 25.9%
viability, T/C [25]: 75.8%
viability, T/C [26]: 80.5%
viability, T/C [27]: 73.5%
viability, T/C [28]: 63.7%
viability, T/C [29]: 46%
viability, T/C [30]: 24.9%
viability, T/C [31]: 82.7%
viability, T/C [32]: 90.5%
viability, T/C [33]: 96.3%
viability, T/C [34]: 78.7%
viability, T/C [35]: 54.6%
viability, T/C [36]: 25.7%

IC50 (second compound 0.0316 µM): 19.5 nM
IC50 (second compound 0.1 µM): 26.3 nM
IC50 (second compound 0.316 µM): 15.5 nM
IC50 (second compound 1 µM): 17.8 nM
IC50 (second compound 3.16 µM): 14.4 nM
IC50 (second compound 10 µM): 24.2 nM
Compound: NC(=O)C(=Cn1cnc(-c2cc(C(F)(F)F)cc(C(F)(F)F)c2)n1)c1cncnc1 + Cc1c(S(C)(=O)=O)c(-c2cc(F)cc(N3CCN(c4ccc(NS(=O)(=O)c5ccc(NC(CCN6CCC(C(=O)OCCCP(=O)(O)O)CC6)CSc6ccccc6)c(S(=O)(=O)C(F)(F)F)c5)cc4)CC3)c2)c(-c2ccc(Cl)cc2)n1C(C)C
viability, T/C (second compound 0.0316 µM, first compound 0.000949 µM): 105%
viability, T/C (second compound 0.0316 µM, first compound 0.003 µM): 73.8%
viability, T/C (second compound 0.0316 µM, first compound 0.00949 µM): 71.2%
viability, T/C (second compound 0.0316 µM, first compound 0.03 µM): 47.7%
viability, T/C (second compound 0.0316 µM, first compound 0.0949 µM): 3.73%
viability, T/C (second compound 0.0316 µM, first compound 0.3 µM): 1.57%
viability, T/C (second compound 0.1 µM, first compound 0.000949 µM): 98.8%
viability, T/C (second compound 0.1 µM, first compound 0.003 µM): 94.7%
viability, T/C (second compound 0.1 µM, first compound 0.00949 µM): 72.6%
viability, T/C (second compound 0.1 µM, first compound 0.03 µM): 53.8%
viability, T/C (second compound 0.1 µM, first compound 0.0949 µM): 4.66%
viability, T/C (second compound 0.1 µM, first compound 0.3 µM): 0.74%
viability, T/C (second compound 0.316 µM, first compound 0.000949 µM): 99.6%
viability, T/C (second compound 0.316 µM, first compound 0.003 µM): 114%
viability, T/C (second compound 0.316 µM, first compound 0.00949 µM): 59.6%
viability, T/C (second compound 0.316 µM, first compound 0.03 µM): 31.9%
viability, T/C (second compound 0.316 µM, first compound 0.0949 µM): 1.71%
viability, T/C (second compound 0.316 µM, first compound 0.3 µM): 0.54%
viability, T/C (second compound 1 µM, first compound 0.000949 µM): 89.3%
viability, T/C (second compound 1 µM, first compound 0.003 µM): 88.8%
viability, T/C (second compound 1 µM, first compound 0.00949 µM): 69.8%
viability, T/C (second compound 1 µM, first compound 0.03 µM): 33.5%
viability, T/C (second compound 1 µM, first compound 0.0949 µM): 5.89%
viability, T/C (second compound 1 µM, first compound 0.3 µM): 0.53%
viability, T/C (second compound 3.16 µM, first compound 0.000949 µM): 74.7%
viability, T/C (second compound 3.16 µM, first compound 0.003 µM): 76.1%
viability, T/C (second compound 3.16 µM, first compound 0.00949 µM): 59.4%
viability, T/C (second compound 3.16 µM, first compound 0.03 µM): 31.6%
viability, T/C (second compound 3.16 µM, first compound 0.0949 µM): 2.57%
viability, T/C (second compound 3.16 µM, first compound 0.3 µM): 0.29%
viability, T/C (second compound 10 µM, first compound 0.000949 µM): 105%
viability, T/C (second compound 10 µM, first compound 0.003 µM): 118%
viability, T/C (second compound 10 µM, first compound 0.00949 µM): 84.4%
viability, T/C (second compound 10 µM, first compound 0.03 µM): 44.5%
viability, T/C (second compound 10 µM, first compound 0.0949 µM): 1.64%
viability, T/C (second compound 10 µM, first compound 0.3 µM): 0.33%

IC50 (second compound 0.0316 µM): 419 nM
IC50 (second compound 0.1 µM): 344 nM
IC50 (second compound 0.316 µM): 291 nM
IC50 (second compound 1 µM): 443 nM
IC50 (second compound 3.16 µM): 322 nM
IC50 (second compound 10 µM): 319 nM
Compound: O=C(c1ccc(F)c(F)c1Nc1ccc(I)cc1F)N1CC(O)([C@@H]2CCCCN2)C1 + Cc1c(S(C)(=O)=O)c(-c2cc(F)cc(N3CCN(c4ccc(NS(=O)(=O)c5ccc(NC(CCN6CCC(C(=O)OCCCP(=O)(O)O)CC6)CSc6ccccc6)c(S(=O)(=O)C(F)(F)F)c5)cc4)CC3)c2)c(-c2ccc(Cl)cc2)n1C(C)C
viability, T/C [1]: 98.2%
viability, T/C [2]: 96.5%
viability, T/C [3]: 99.2%
viability, T/C [4]: 97.7%
viability, T/C [5]: 60.5%
viability, T/C [6]: 17.5%
viability, T/C [7]: 85.2%
viability, T/C [8]: 81.6%
viability, T/C [9]: 72.2%
viability, T/C [10]: 111%
viability, T/C [11]: 52.9%
viability, T/C [12]: 13.2%
viability, T/C [13]: 85%
viability, T/C [14]: 76.7%
viability, T/C [15]: 75.3%
viability, T/C [16]: 103%
viability, T/C [17]: 47.4%
viability, T/C [18]: 10.6%
viability, T/C [19]: 76.7%
viability, T/C [20]: 85.5%
viability, T/C [21]: 72.6%
viability, T/C [22]: 73%
viability, T/C [23]: 67.3%
viability, T/C [24]: 11.2%
viability, T/C [25]: 74.9%
viability, T/C [26]: 72.7%
viability, T/C [27]: 73%
viability, T/C [28]: 79.4%
viability, T/C [29]: 50.7%
viability, T/C [30]: 9.52%
viability, T/C [31]: 76.9%
viability, T/C [32]: 92%
viability, T/C [33]: 73%
viability, T/C [34]: 97.9%
viability, T/C [35]: 50.2%
viability, T/C [36]: 16.8%
